# Laboratory results reported in ChEMBL document CHEMBL1201862, “PubChem BioAssay data set” (2004).
#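 96-well plates; 48 h exposure; 5 concentrations. Endpoints by linear interpolation between flanking doses. Not reached: highest tested concentration assigned. Here, GI50 denotes the concentration required for 50% inhibition of growth.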 The source made the active and inactive calls. Cut-off read from the data, not from the text of the source: active = GI50 up to about 1.1 µM and inactive = higher.
# Assays:
# Assay in all cases: NCI-60 cell line screen, 48 h
# 786-0 = system: 786-0
# A549 = system: A549
# BT-549 = system: BT-549
# CAKI-1 = system: CAKI-1
# CCRF-CEM = system: CCRF-CEM
# COLO 205 = system: COLO 205
# DU-145 = system: DU-145
# EKVX = system: EKVX
# HCC 2998 = system: HCC 2998
# HCT-116 = system: HCT-116
# HCT-15 = system: HCT-15
# HL-60 = system: HL-60
# HOP-92 = system: HOP-92
# HT-29 = system: HT-29
# IGROV-1 = system: IGROV-1
# K562 = system: K562
# KM12 = system: KM12
# LOX IMVI = system: LOX IMVI
# M14 = system: M14
# MCF7 = system: MCF7
# MDA-MB-231 = system: MDA-MB-231
# MDA-MB-435 = system: MDA-MB-435
# MDA-N = system: MDA-N
# MOLT-4 = system: MOLT-4
# NCI-H226 = system: NCI-H226
# NCI-H23 = system: NCI-H23
# NCI-H460 = system: NCI-H460
# NCI-H522 = system: NCI-H522
# NCI/ADR-RES = system: NCI/ADR-RES
# OVCAR-3 = system: OVCAR-3
# OVCAR-4 = system: OVCAR-4
# OVCAR-5 = system: OVCAR-5
# OVCAR-8 = system: OVCAR-8
# PC-3 = system: PC-3
# RPMI-8226 = system: RPMI-8226
# SF-268 = system: SF-268
# SF-295 = system: SF-295
# SF-539 = system: SF-539
# SK-MEL-28 = system: SK-MEL-28
# SK-MEL-2 = system: SK-MEL-2
# SK-MEL-5 = system: SK-MEL-5
# SK-OV-3 = system: SK-OV-3
# SN12C = system: SN12C
# SNB-19 = system: SNB-19
# SR = system: SR
# SW-620 = system: SW-620
# TK-10 = system: TK-10
# U-251 = system: U-251
# UACC-257 = system: UACC-257
# UACC-62 = system: UACC-62
# UO-31 = system: UO-31
# ACHN = system: ACHN
# HOP-62 = system: HOP-62
# SNB-75 = system: SNB-75
# T47D = system: T47D
# A498 = system: A498
# Malme-3M = system: Malme-3M
# RXF 393 = system: RXF 393
smiles,measurement,setting,value
Cc1ccc(C(=O)N/N=C(\N=N\c2ccccc2)c2ccc(N(C)C)cc2)cc1,GI50,786-0,68.2 µM (inactive)
same,GI50,A549,> 100 µM (inactive)
same,GI50,BT-549,> 100 µM (inactive)
same,GI50,CAKI-1,44.5 µM (inactive)
same,GI50,CCRF-CEM,> 100 µM (inactive)
same,GI50,COLO 205,57.3 µM (inactive)
same,GI50,DU-145,20.9 µM (inactive)
same,GI50,EKVX,> 100 µM (inactive)
same,GI50,HCC 2998,90.8 µM (inactive)
same,GI50,HCT-116,> 100 µM (inactive)
same,GI50,HCT-15,> 100 µM
same,GI50,HL-60,> 100 µM (inactive)
same,GI50,HOP-92,> 100 µM (inactive)
same,GI50,HT-29,> 100 µM (inactive)
same,GI50,IGROV-1,> 100 µM (inactive)
same,GI50,K562,52.2 µM (inactive)
same,GI50,KM12,71.1 µM (inactive)
same,GI50,LOX IMVI,> 100 µM (inactive)
same,GI50,M14,> 100 µM (inactive)
same,GI50,MCF7,48.8 µM (inactive)
same,GI50,MDA-MB-231,> 100 µM (inactive)
same,GI50,MDA-MB-435,24 µM (inactive)
same,GI50,MDA-N,29.4 µM (inactive)
same,GI50,MOLT-4,> 100 µM (inactive)
same,GI50,NCI-H226,> 100 µM (inactive)
same,GI50,NCI-H23,> 100 µM (inactive)
same,GI50,NCI-H460,> 100 µM (inactive)
same,GI50,NCI-H522,65.8 µM (inactive)
same,GI50,NCI/ADR-RES,> 100 µM (inactive)
same,GI50,OVCAR-3,> 100 µM (inactive)
same,GI50,OVCAR-4,16.3 µM (inactive)
same,GI50,OVCAR-5,> 100 µM (inactive)
same,GI50,OVCAR-8,> 100 µM (inactive)
same,GI50,PC-3,> 100 µM (inactive)
same,GI50,RPMI-8226,> 100 µM (inactive)
same,GI50,SF-268,50.7 µM (inactive)
same,GI50,SF-295,> 100 µM (inactive)
same,GI50,SF-539,> 100 µM (inactive)
same,GI50,SK-MEL-28,> 100 µM (inactive)
same,GI50,SK-MEL-2,> 100 µM (inactive)
same,GI50,SK-MEL-5,92 µM (inactive)
same,GI50,SK-OV-3,> 100 µM (inactive)
same,GI50,SN12C,> 100 µM (inactive)
same,GI50,SNB-19,80.4 µM (inactive)
same,GI50,SR,35.5 µM (inactive)
same,GI50,SW-620,> 100 µM (inactive)
same,GI50,TK-10,> 100 µM (inactive)
same,GI50,U-251,> 100 µM (inactive)
same,GI50,UACC-257,> 100 µM (inactive)
same,GI50,UACC-62,67.8 µM (inactive)
same,GI50,UO-31,> 100 µM (inactive)
COc1cc(/C=C2/C(=O)N/C(=N\C(C)=O)N2C)ccc1OC(C)=O,GI50,786-0,> 100 µM (inactive)
same,GI50,A549,> 100 µM (inactive)
same,GI50,ACHN,> 100 µM (inactive)
same,GI50,BT-549,> 100 µM (inactive)
same,GI50,CAKI-1,> 100 µM (inactive)
same,GI50,COLO 205,> 100 µM (inactive)
same,GI50,DU-145,> 100 µM (inactive)
same,GI50,EKVX,> 100 µM (inactive)
same,GI50,HCC 2998,> 100 µM (inactive)
same,GI50,HCT-116,> 100 µM (inactive)
same,GI50,HCT-15,> 100 µM
same,GI50,HL-60,53.3 µM (inactive)
same,GI50,HOP-62,> 100 µM (inactive)
same,GI50,HOP-92,> 100 µM (inactive)
same,GI50,HT-29,> 100 µM (inactive)
same,GI50,IGROV-1,> 100 µM (inactive)
same,GI50,KM12,> 100 µM (inactive)
same,GI50,LOX IMVI,> 100 µM (inactive)
same,GI50,M14,> 100 µM (inactive)
same,GI50,MCF7,> 100 µM (inactive)
same,GI50,MDA-MB-231,> 100 µM (inactive)
same,GI50,MDA-MB-435,> 100 µM (inactive)
same,GI50,MDA-N,> 100 µM (inactive)
same,GI50,MOLT-4,> 100 µM (inactive)
same,GI50,NCI-H226,> 100 µM (inactive)
same,GI50,NCI-H23,> 100 µM (inactive)
same,GI50,NCI-H460,> 100 µM (inactive)
same,GI50,NCI/ADR-RES,> 100 µM (inactive)
same,GI50,OVCAR-3,> 100 µM (inactive)
same,GI50,OVCAR-4,> 100 µM (inactive)
same,GI50,OVCAR-5,> 100 µM (inactive)
same,GI50,OVCAR-8,> 100 µM (inactive)
same,GI50,PC-3,> 100 µM (inactive)
same,GI50,SF-295,> 100 µM (inactive)
same,GI50,SF-539,> 100 µM (inactive)
same,GI50,SK-MEL-28,> 100 µM (inactive)
same,GI50,SK-MEL-2,> 100 µM (inactive)
same,GI50,SK-MEL-5,> 100 µM (inactive)
same,GI50,SK-OV-3,> 100 µM (inactive)
same,GI50,SN12C,> 100 µM (inactive)
same,GI50,SNB-19,> 100 µM (inactive)
same,GI50,SNB-75,> 100 µM (inactive)
same,GI50,SW-620,> 100 µM (inactive)
same,GI50,T47D,> 100 µM (inactive)
same,GI50,TK-10,47.9 µM (inactive)
same,GI50,U-251,> 100 µM (inactive)
same,GI50,UACC-257,> 100 µM (inactive)
same,GI50,UACC-62,> 100 µM (inactive)
same,GI50,UO-31,> 100 µM (inactive)
CCOC(=O)c1sc2nc(SC)nc(Nc3ccc4c(c3)OCCO4)c2c1N,GI50,A498,11.9 µM (inactive)
same,GI50,A549,10 µM (inactive)
same,GI50,ACHN,7.28 µM (inactive)
same,GI50,BT-549,16 µM (inactive)
same,GI50,CAKI-1,22.9 µM (inactive)
same,GI50,CCRF-CEM,16.9 µM (inactive)
same,GI50,COLO 205,5.45 µM (inactive)
same,GI50,DU-145,14.1 µM (inactive)
same,GI50,EKVX,9.59 µM (inactive)
same,GI50,HCC 2998,25.7 µM (inactive)
same,GI50,HCT-116,6.3 µM (inactive)
same,GI50,HL-60,> 100 µM (inactive)
same,GI50,HOP-62,11.8 µM (inactive)
same,GI50,HOP-92,13.1 µM (inactive)
same,GI50,HT-29,21 µM (inactive)
same,GI50,IGROV-1,29.9 µM (inactive)
same,GI50,K562,20.6 µM (inactive)
same,GI50,KM12,44.6 µM (inactive)
same,GI50,LOX IMVI,30.6 µM (inactive)
same,GI50,M14,11 µM (inactive)
same,GI50,MCF7,10.5 µM (inactive)
same,GI50,MDA-MB-231,11.1 µM (inactive)
same,GI50,MDA-MB-435,18 µM (inactive)
same,GI50,MDA-N,10.4 µM (inactive)
same,GI50,MOLT-4,8.05 µM (inactive)
same,GI50,Malme-3M,12 µM (inactive)
same,GI50,NCI-H226,3.33 µM (inactive)
same,GI50,NCI-H23,14.2 µM (inactive)
same,GI50,NCI-H460,17.5 µM (inactive)
same,GI50,NCI-H522,6.76 µM (inactive)
same,GI50,NCI/ADR-RES,21.6 µM (inactive)
same,GI50,OVCAR-3,13.5 µM (inactive)
same,GI50,OVCAR-4,10.7 µM (inactive)
same,GI50,OVCAR-5,17.1 µM (inactive)
same,GI50,OVCAR-8,5.12 µM (inactive)
same,GI50,PC-3,13.2 µM (inactive)
same,GI50,RPMI-8226,12.6 µM (inactive)
same,GI50,RXF 393,3.93 µM (inactive)
same,GI50,SF-268,4.69 µM (inactive)
same,GI50,SF-295,42.3 µM (inactive)
same,GI50,SF-539,7.52 µM (inactive)
same,GI50,SK-MEL-28,> 100 µM (inactive)
same,GI50,SK-MEL-2,15 µM (inactive)
same,GI50,SK-MEL-5,7.53 µM (inactive)
same,GI50,SN12C,8.49 µM (inactive)
same,GI50,SNB-19,17.6 µM (inactive)
same,GI50,SR,20.5 µM (inactive)
same,GI50,SW-620,19.5 µM (inactive)
same,GI50,T47D,6.34 µM (inactive)
same,GI50,TK-10,15.2 µM (inactive)
same,GI50,U-251,5.87 µM (inactive)
same,GI50,UACC-257,21.7 µM (inactive)
same,GI50,UACC-62,11.4 µM (inactive)
same,GI50,UO-31,15 µM (inactive)
CC(=O)Nc1ccc(S(=O)(=O)Nc2nnc(S(N)(=O)=O)s2)cc1,GI50,786-0,> 100 µM (inactive)
same,GI50,A498,> 100 µM (inactive)
same,GI50,A549,> 100 µM (inactive)
same,GI50,ACHN,> 100 µM (inactive)
same,GI50,BT-549,> 100 µM (inactive)
same,GI50,CAKI-1,> 100 µM (inactive)
same,GI50,COLO 205,> 100 µM (inactive)
same,GI50,DU-145,> 100 µM (inactive)
same,GI50,EKVX,> 100 µM (inactive)
same,GI50,HCC 2998,> 100 µM (inactive)
same,GI50,HCT-116,> 100 µM (inactive)
same,GI50,HCT-15,> 100 µM
same,GI50,HL-60,> 100 µM (inactive)
same,GI50,HOP-92,> 100 µM (inactive)
same,GI50,HT-29,> 100 µM (inactive)
same,GI50,KM12,> 100 µM (inactive)
same,GI50,LOX IMVI,> 100 µM (inactive)
same,GI50,M14,> 100 µM (inactive)
same,GI50,MCF7,> 100 µM (inactive)
same,GI50,MDA-MB-231,> 100 µM (inactive)
same,GI50,MDA-MB-435,> 100 µM (inactive)
same,GI50,MOLT-4,> 100 µM (inactive)
same,GI50,Malme-3M,> 100 µM (inactive)
same,GI50,NCI-H226,> 100 µM (inactive)
same,GI50,NCI-H23,> 100 µM (inactive)
same,GI50,NCI-H460,> 100 µM (inactive)
same,GI50,NCI-H522,> 100 µM (inactive)
same,GI50,NCI/ADR-RES,> 100 µM (inactive)
same,GI50,OVCAR-4,> 100 µM (inactive)
same,GI50,OVCAR-5,> 100 µM (inactive)
same,GI50,RPMI-8226,> 100 µM (inactive)
same,GI50,RXF 393,> 100 µM (inactive)
same,GI50,SF-268,> 100 µM (inactive)
same,GI50,SF-295,> 100 µM (inactive)
same,GI50,SF-539,> 100 µM (inactive)
same,GI50,SK-OV-3,> 100 µM (inactive)
same,GI50,SNB-19,> 100 µM (inactive)
same,GI50,SNB-75,> 100 µM (inactive)
same,GI50,SR,> 100 µM (inactive)
same,GI50,SW-620,> 100 µM (inactive)
same,GI50,T47D,> 100 µM (inactive)
same,GI50,TK-10,> 100 µM (inactive)
same,GI50,U-251,> 100 µM (inactive)
same,GI50,UACC-62,> 100 µM (inactive)
same,GI50,UO-31,> 100 µM (inactive)
